For data set [1], the system named is Fusarium culmorum. As to the kind of experiment: Antifungal activity against Fusarium culmorum assessed as inhibition of mycelial growth at 200 ppm at 21 +/- 1 degC measured after 5 days. It is filed as functional. The note with it: 120 h, read-out: GI.
In data set [2] the test system is Fusarium culmorum. Briefly: Antifungal activity against Fusarium culmorum assessed as inhibition of mycelial growth at 20 ppm at 21 +/- 1 degC measured after 5 days. Type of data set: functional. The note with it: 120 h, read-out: GI.
The test system of data set [3] is Alternaria alternata. As to the kind of experiment: Antifungal activity against Alternaria alternata assessed as inhibition of mycelial growth at 200 ppm at 21 +/- 1 degC measured after 5 days. It is filed as functional. The note with it: 120 h, read-out: GI.
Data set [4] relates to Botrytis cinerea. Briefly: Antifungal activity against Botryotinia fuckeliana assessed as inhibition of mycelial growth at 20 ppm at 21 +/- 1 degC measured after 3 days. The note with it: 72 h, read-out: GI. It is filed as functional.
For data set [5], the system named is Botrytis cinerea. As to the kind of experiment: Antifungal activity against Botryotinia fuckeliana assessed as inhibition of mycelial growth at 200 ppm at 21 +/- 1 degC measured after 3 days. The note with it: 72 h, read-out: GI. Type of data set: functional.
The test system of data set [6] is Phytophthora cactorum. Briefly: Antifungal activity against Phytophthora cactorum assessed as inhibition of mycelial growth at 20 ppm at 21 +/- 1 degC measured after 5 days. It is filed as functional. The note with it: 120 h, read-out: GI.
Data set [7] can be described thus: Octanol-water partition coefficient, log P of the compound. It is filed as physicochemical.
Data set [8] deals with Rhizoctonia solani. As to the kind of experiment: Antifungal activity against Rhizoctonia solani assessed as inhibition of mycelial growth at 200 ppm at 21 +/- 1 degC measured after 4 days. Type of data set: functional. The note with it: 96 h, read-out: GI.
The subject of data set [9] is Phytophthora cactorum. Briefly: Antifungal activity against Phytophthora cactorum assessed as inhibition of mycelial growth at 200 ppm at 21 +/- 1 degC measured after 5 days. Type of data set: functional. The note with it: 120 h, read-out: GI.
Data set [10] has as its system Alternaria alternata. Briefly: Antifungal activity against Alternaria alternata assessed as inhibition of mycelial growth at 20 ppm at 21 +/- 1 degC measured after 5 days. It is filed as functional. The note with it: 120 h, read-out: GI.
Data set [11] in a line: Lipophilicity, log K of the compound in water. The note with it: buffer. Type of data set: physicochemical.
Data set [12] deals with Rhizoctonia solani. Briefly: Antifungal activity against Rhizoctonia solani assessed as inhibition of mycelial growth at 20 ppm at 21 +/- 1 degC measured after 4 days. Type of data set: functional. The note with it: 96 h, read-out: GI.

Consider `Cc1cc(NC(=S)c2ccc(O)cc2O)ccc1N1C(=O)c2ccc(Cl)cc2C1=O`, for which the inhibition of growth at 200 ppm with Fusarium culmorum [1] came to 21%; in the data set on Alternaria alternata [3], 21%; in the data set with Botrytis cinerea [5] it was 0%; with Rhizoctonia solani [8] it was 0%; with Phytophthora cactorum [9] it was 0%. Also, the inhibition of growth at 20 ppm in the data set on Fusarium culmorum [2], in the data set on Botrytis cinerea [4], in the data set with Phytophthora cactorum [6], in the data set with Alternaria alternata [10] and with Rhizoctonia solani [12] was 0% throughout. The logP in data set [7] stood at 4.57. Besides, the logKw in data set [11] came out at 3.63.

As to `CCN(C(=S)c1ccc(O)cc1O)c1cccc2ccccc12`, the inhibition of growth at 200 ppm in the data set with Fusarium culmorum [1] came out at 21%; in the data set with Alternaria alternata [3], 21%; in the data set on Botrytis cinerea [5], 0%; in the data set on Rhizoctonia solani [8] it was 0%; with Phytophthora cactorum [9] it was 21%. Moreover, the inhibition of growth at 20 ppm in the data set with Fusarium culmorum [2], in the data set on Botrytis cinerea [4], in the data set on Phytophthora cactorum [6], in the data set with Alternaria alternata [10] and with Rhizoctonia solani [12] was 0% throughout. Besides, the logP in [7] was determined as 5.03. Also, the logKw in data set [11] turned out to be 5.09.

Take `Oc1ccc(C(=S)N(c2ccccc2)c2nnns2)c(O)c1`: the inhibition of growth at 200 ppm in the data set with Fusarium culmorum [1], in the data set on Alternaria alternata [3], with Botrytis cinerea [5], with Rhizoctonia solani [8] and in the data set on Phytophthora cactorum [9] was 81% throughout. Moreover, the inhibition of growth at 20 ppm with Fusarium culmorum [2] turned out to be 21%; in the data set on Botrytis cinerea [4] it was 51%; with Phytophthora cactorum [6] it was 21%; in the data set on Alternaria alternata [10] it was 51%; in the data set with Rhizoctonia solani [12], 21%. Moreover, the logKw in data set [11] is given as 3.3.

Consider `Oc1ccc(C(=S)N(Cc2ccccc2)c2ccccn2)c(O)c1`, for which the inhibition of growth at 200 ppm in the data set with Fusarium culmorum [1] stood at 21%; in the data set with Alternaria alternata [3], 21%; in the data set on Botrytis cinerea [5], 51%; in the data set on Rhizoctonia solani [8] it was 21%; in the data set on Phytophthora cactorum [9], 21%. Besides, the inhibition of growth at 20 ppm in the data set on Fusarium culmorum [2], with Botrytis cinerea [4], in the data set on Phytophthora cactorum [6], in the data set with Alternaria alternata [10] and with Rhizoctonia solani [12] was 0% in each case. The logP in [7] is 4.56. This molecule also gave a logKw in data set [11] of 3.96.

Turning to `C=C(C)c1ccccc1NC(=S)c1ccc(O)cc1O`, the inhibition of growth at 200 ppm with Fusarium culmorum [1], with Alternaria alternata [3], with Botrytis cinerea [5], with Rhizoctonia solani [8] and in the data set with Phytophthora cactorum [9] was 81% each time. Besides, the inhibition of growth at 20 ppm in the data set with Fusarium culmorum [2], in the data set with Botrytis cinerea [4], in the data set on Phytophthora cactorum [6], in the data set on Alternaria alternata [10] and in the data set on Rhizoctonia solani [12] was 51% throughout. The molecule further yielded a logP in [7] of 4.27. The same molecule returned a logKw in [11] of 4.55.

As for `O=[N+]([O-])c1cc(NC(=S)c2ccc(O)cc2O)ccc1F`, the inhibition of growth at 200 ppm in the data set on Fusarium culmorum [1], with Alternaria alternata [3], with Botrytis cinerea [5], with Rhizoctonia solani [8] and in the data set with Phytophthora cactorum [9] was 81% each time. Besides, the inhibition of growth at 20 ppm in the data set on Fusarium culmorum [2] amounted to 21%; with Botrytis cinerea [4], 21%; in the data set with Phytophthora cactorum [6], 21%; with Alternaria alternata [10], 21%; in the data set with Rhizoctonia solani [12], 51%. Further, the logP in data set [7] is 3.43. In addition, in data set [11], the logKw stood at 3.96.

Consider `Oc1ccc(C(=S)Nc2cc(C(F)(F)F)cc(C(F)(F)F)c2)c(O)c1`, for which the inhibition of growth at 200 ppm in the data set with Fusarium culmorum [1], with Alternaria alternata [3], with Botrytis cinerea [5], in the data set with Rhizoctonia solani [8] and in the data set on Phytophthora cactorum [9] was 81% throughout. The inhibition of growth at 20 ppm was determined as 51% with Fusarium culmorum [2]; 51% in the data set with Botrytis cinerea [4]; 51% with Phytophthora cactorum [6]; 51% in the data set with Alternaria alternata [10]; 21% in the data set on Rhizoctonia solani [12]. This molecule also showed a logP in data set [7] of 4.75. Besides, in data set [11], the logKw stood at 6.06.

Consider `Oc1ccc(C(=S)Nc2cccc3c2CCCC3)c(O)c1`, for which the inhibition of growth at 200 ppm with Fusarium culmorum [1], in the data set on Alternaria alternata [3], in the data set on Botrytis cinerea [5], in the data set on Rhizoctonia solani [8] and in the data set on Phytophthora cactorum [9] was 81% throughout. Moreover, the inhibition of growth at 20 ppm in the data set with Fusarium culmorum [2], in the data set on Botrytis cinerea [4], in the data set on Phytophthora cactorum [6], in the data set on Alternaria alternata [10] and with Rhizoctonia solani [12] was 51% each time. Further, the logP in data set [7] came out at 4.22. The molecule also had a logKw in [11] of 3.56.

Take `O=C(c1ccccc1)c1ccc(NC(=S)c2ccc(O)cc2O)cc1`: the inhibition of growth at 200 ppm in the data set on Fusarium culmorum [1], in the data set on Alternaria alternata [3], with Botrytis cinerea [5], in the data set with Rhizoctonia solani [8] and in the data set on Phytophthora cactorum [9] was 51% each time. The inhibition of growth at 20 ppm in the data set with Fusarium culmorum [2] was 0%; with Botrytis cinerea [4], 0%; with Phytophthora cactorum [6] it was 21%; with Alternaria alternata [10], 0%; in the data set with Rhizoctonia solani [12] it was 0%. The same molecule registered a logP in data set [7] of 4.12. This molecule also had a logKw in [11] of 4.28.

Consider `Oc1ccc(C(=S)Nc2ccccc2-n2cccc2)c(O)c1`, for which the inhibition of growth at 200 ppm with Fusarium culmorum [1], in the data set with Alternaria alternata [3], in the data set with Botrytis cinerea [5], in the data set with Rhizoctonia solani [8] and in the data set on Phytophthora cactorum [9] was 81% in each case. The inhibition of growth at 20 ppm with Fusarium culmorum [2] is 51%; in the data set on Botrytis cinerea [4], 21%; with Phytophthora cactorum [6] it was 21%; in the data set with Alternaria alternata [10], 21%; in the data set on Rhizoctonia solani [12], 51%. This molecule also came in with a logP in data set [7] of 3.29. The molecule also showed a logKw in data set [11] of 3.59.

Regarding `Oc1ccc(C(=S)Nc2ccc(N3CCOCC3)cc2)c(O)c1`, the inhibition of growth at 200 ppm with Fusarium culmorum [1] stood at 21%; with Alternaria alternata [3], 0%; with Botrytis cinerea [5], 21%; with Rhizoctonia solani [8], 0%; in the data set on Phytophthora cactorum [9] it was 21%. In addition, the inhibition of growth at 20 ppm in the data set with Fusarium culmorum [2], in the data set on Botrytis cinerea [4], in the data set with Phytophthora cactorum [6], in the data set on Alternaria alternata [10] and with Rhizoctonia solani [12] was 0% each time. The molecule also showed a logP in data set [7] of 2.79. The logKw in data set [11] came to 2.49.

Take `Oc1ccc(C(=S)Nc2nc(=S)ss2)c(O)c1`: the inhibition of growth at 200 ppm in the data set with Fusarium culmorum [1], in the data set on Alternaria alternata [3], in the data set with Botrytis cinerea [5], in the data set on Rhizoctonia solani [8] and in the data set on Phytophthora cactorum [9] was 81% each time. Also, the inhibition of growth at 20 ppm with Fusarium culmorum [2] is 21%; with Botrytis cinerea [4], 51%; in the data set on Phytophthora cactorum [6], 51%; in the data set on Alternaria alternata [10], 21%; in the data set with Rhizoctonia solani [12], 21%. Besides, in data set [7], the logP turned out to be 4.45. Also, in data set [11], the logKw was 2.99.

On to `Cc1ccc2sc(-c3ccc(NC(=S)c4ccc(O)cc4O)cc3)nc2c1`, for which the inhibition of growth at 200 ppm was 21% in the data set on Fusarium culmorum [1]; 21% in the data set with Alternaria alternata [3]; 0% with Botrytis cinerea [5]; 0% in the data set with Rhizoctonia solani [8]; 0% with Phytophthora cactorum [9]. Further, the inhibition of growth at 20 ppm with Fusarium culmorum [2], in the data set with Botrytis cinerea [4], in the data set with Phytophthora cactorum [6], in the data set on Alternaria alternata [10] and with Rhizoctonia solani [12] was 0% throughout. Besides, the logP in [7] worked out at 3.89. Besides, the logKw in data set [11] is given as 4.87.

Consider `COC(=O)Nc1nc2ccccc2[nH]1` [CARBENDAZIM], for which the inhibition of growth at 200 ppm with Fusarium culmorum [1], in the data set on Rhizoctonia solani [8] and in the data set on Phytophthora cactorum [9] was 81% each time. The inhibition of growth at 20 ppm in the data set on Fusarium culmorum [2], with Phytophthora cactorum [6] and in the data set on Rhizoctonia solani [12] was 81% throughout.

Regarding `CCCN(CCOc1c(Cl)cc(Cl)cc1Cl)C(=O)n1ccnc1` [PROCHLORAZ], the inhibition of growth at 200 ppm with Fusarium culmorum [1], with Alternaria alternata [3] and in the data set with Phytophthora cactorum [9] was 81% throughout. The inhibition of growth at 20 ppm in the data set on Fusarium culmorum [2], in the data set with Phytophthora cactorum [6] and with Alternaria alternata [10] was 81% each time.

For the molecule `CC12CC1(C)C(=O)N(c1cc(Cl)cc(Cl)c1)C2=O` (stereo unspecified) [PROCYMIDONE], the inhibition of growth at 200 ppm in the data set with Alternaria alternata [3] and in the data set on Botrytis cinerea [5] was 81% throughout. Besides, the inhibition of growth at 20 ppm in the data set on Botrytis cinerea [4] and with Alternaria alternata [10] was 81% throughout.

Values taken from ChEMBL document CHEMBL3046243, “Synthesis, antifungal activity and SAR of N-substituted and N,N-disubstituted 2,4-dihydroxythiobenzamides” (J Pestic Sci, 2006).
